The text below walks through data of patent US20220370440A1 (Lead Discovery Center GmbH, priority 2018, published 2022).

Series [1] in a line: Metabolic stability in mouse liver microsomes without cofactor NADPH. Type of series: in vitro ADME. The conditions noted are these: 3 μM test compound, mouse liver microsomes, without NADPH, 50 min, 37° C., LC-MS/MS. A digest of the protocol:
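Test compound (3 μM) was incubated with mouse liver microsomes without NADPH at 37° C. Depletion was followed by LC-MS/MS over time up to 50 min.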

In series [2] the target is EGFR Exon 20 INSNPH Ba/F3 (Homo sapiens, UniProt P00533, DUP771-773, cells depend on it). The series can be described thus: EGFR Exon 20 INSNPH Ba/F3 CellTiter-Glo. The series is classed as cell-based. Particulars: CellTiter-Glo, 72 h, read-out: EGFR Exon 20 INSNPH Ba/F3 CTG IC50. The gist of the method: (§1)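 Using a 72 h viability readout, compound-treated Ba/F3 cells (pre-incubated 24 h after seeding) were lysed with CellTiter-Glo reagent and luminescence recorded. Potency was expressed as IC50 from a fitted dose–response curve.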
EGFR Exon 20 INSNPH Ba/F3, sequence (P00533 with tags, fused parts or gaps DUP771-773): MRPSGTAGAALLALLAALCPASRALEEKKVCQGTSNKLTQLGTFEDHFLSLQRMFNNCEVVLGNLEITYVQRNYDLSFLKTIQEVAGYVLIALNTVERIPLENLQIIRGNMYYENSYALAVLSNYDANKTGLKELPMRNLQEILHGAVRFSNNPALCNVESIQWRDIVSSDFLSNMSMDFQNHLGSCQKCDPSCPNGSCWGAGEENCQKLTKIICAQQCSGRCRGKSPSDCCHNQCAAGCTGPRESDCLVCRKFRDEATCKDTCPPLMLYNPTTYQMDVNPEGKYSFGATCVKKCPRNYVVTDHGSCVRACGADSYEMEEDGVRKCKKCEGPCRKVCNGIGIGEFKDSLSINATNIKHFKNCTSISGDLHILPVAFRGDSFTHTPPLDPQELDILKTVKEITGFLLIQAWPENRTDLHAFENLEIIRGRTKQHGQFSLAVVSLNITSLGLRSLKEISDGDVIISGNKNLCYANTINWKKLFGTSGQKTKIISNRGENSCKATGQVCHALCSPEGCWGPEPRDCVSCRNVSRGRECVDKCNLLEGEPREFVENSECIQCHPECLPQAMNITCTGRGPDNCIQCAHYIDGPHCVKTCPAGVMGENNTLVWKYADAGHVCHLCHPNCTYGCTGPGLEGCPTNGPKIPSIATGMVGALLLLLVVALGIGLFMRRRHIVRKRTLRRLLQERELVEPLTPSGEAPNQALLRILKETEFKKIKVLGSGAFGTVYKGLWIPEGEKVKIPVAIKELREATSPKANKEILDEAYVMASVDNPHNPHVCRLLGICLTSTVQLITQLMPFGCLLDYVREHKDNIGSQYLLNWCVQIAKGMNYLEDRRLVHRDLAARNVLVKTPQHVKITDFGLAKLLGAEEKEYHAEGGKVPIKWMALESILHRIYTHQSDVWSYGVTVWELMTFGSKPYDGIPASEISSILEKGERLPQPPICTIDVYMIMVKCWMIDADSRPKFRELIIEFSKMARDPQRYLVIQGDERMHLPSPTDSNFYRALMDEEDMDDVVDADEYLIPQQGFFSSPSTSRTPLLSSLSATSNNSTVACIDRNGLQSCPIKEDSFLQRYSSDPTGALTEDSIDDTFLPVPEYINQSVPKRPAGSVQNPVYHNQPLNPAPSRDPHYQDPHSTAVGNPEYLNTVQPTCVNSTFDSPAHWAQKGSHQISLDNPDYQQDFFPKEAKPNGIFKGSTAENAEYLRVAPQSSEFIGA
(In general: ATP-based viability assays read luminescence as a measure of living cells.)

The next series concerns H1975. The series is described as follows: H1975 CellTiter-Glo. The series is classed as cell-based. The conditions noted are these: Homo sapiens, NCI-H1975; 72 h compound incubation; read-out: H1975 CTG IC50. The gist of the method: (§2)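 Cells were seeded, left 24 h at 37° C. and 5% CO2, then exposed to compounds in DMSO at different concentrations for a further 72 h. Viability was read as ATP-dependent luminescence (CellTiter-Glo), and IC50 values were obtained from dose-response fits against DMSO and 10 μM Staurosporine controls.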

A further series addresses EGFR T790ML858R (Homo sapiens, UniProt P00533, L858R/T790M). The series is described as follows: EGFR T790ML858R Lance assay. Type of series: biochemical. Here is the method: (§3) Inhibition is indicated as […] [nM] (“−”=not measured). Compounds having an activity designated as “A” provided an IC50≤100 nM; compounds having an activity designated as “B” provided an 100 nM<IC50≤500 nM; compounds having an activity designated as “C” provided an 500 nM<IC50≤1000 nM; compounds having an activity designated as “D” provided an 1000 nM<IC50≤100000 nM; and compounds having an activity designated as “E” provided an IC50>10000 nM.

The test system of another series is A431. The series can be described thus: A431 CellTiter-Glo. Particulars: Homo sapiens, A-431; 72 h compound incubation; read-out: A431 CTG IC50. The series is classed as cell-based. The gist of the method: as §2
The next series addresses T1, HER2 INS YVMA (Homo sapiens, UniProt P04626, INS775YVMA).
T1 construct: purchased DPF
The series is described as follows: Lance Kinase Activity Assay, HER2 INS YVMA (Her2 Exon 20 INSYVMA Lance). The conditions noted are these: biochemical Lance assay. Type of series: biochemical. A digest of the protocol:
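Kinase phosphorylates a ULight-labelled peptide substrate; Eu anti-phospho antibody gives TR-FRET (ex 340 nm, em 665/615 nm). Compounds in 1:3 serial dilution over 8 steps, reaction started with ATP, 1 h at room temperature, stopped with EDTA-containing detection mix for 1 h. IC50 from sigmoidal dose-response curves.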

The target in a further series is EGFR wt (Homo sapiens, UniProt P00533). The series can be described thus: EGFR wt Lance assay. The series is classed as biochemical. Here is the method:
as §3

Series [3] has as its target Her2 Exon 20 INSYVMA Ba/F3 (Homo sapiens, UniProt P04626, DUP772-775, cells depend on it). The series is described as follows: Her2 Exon 20 INSYVMA Ba/F3 CellTiter-Glo. Type of series: cell-based. Particulars: CellTiter-Glo, 72 h, read-out: Her2 Exon 20 INSYVMA Ba/F3 CTG IC50. The gist of the method: as §1

EGFR T790ML858R, sequence (P00533 25-1210 T790M/L858R): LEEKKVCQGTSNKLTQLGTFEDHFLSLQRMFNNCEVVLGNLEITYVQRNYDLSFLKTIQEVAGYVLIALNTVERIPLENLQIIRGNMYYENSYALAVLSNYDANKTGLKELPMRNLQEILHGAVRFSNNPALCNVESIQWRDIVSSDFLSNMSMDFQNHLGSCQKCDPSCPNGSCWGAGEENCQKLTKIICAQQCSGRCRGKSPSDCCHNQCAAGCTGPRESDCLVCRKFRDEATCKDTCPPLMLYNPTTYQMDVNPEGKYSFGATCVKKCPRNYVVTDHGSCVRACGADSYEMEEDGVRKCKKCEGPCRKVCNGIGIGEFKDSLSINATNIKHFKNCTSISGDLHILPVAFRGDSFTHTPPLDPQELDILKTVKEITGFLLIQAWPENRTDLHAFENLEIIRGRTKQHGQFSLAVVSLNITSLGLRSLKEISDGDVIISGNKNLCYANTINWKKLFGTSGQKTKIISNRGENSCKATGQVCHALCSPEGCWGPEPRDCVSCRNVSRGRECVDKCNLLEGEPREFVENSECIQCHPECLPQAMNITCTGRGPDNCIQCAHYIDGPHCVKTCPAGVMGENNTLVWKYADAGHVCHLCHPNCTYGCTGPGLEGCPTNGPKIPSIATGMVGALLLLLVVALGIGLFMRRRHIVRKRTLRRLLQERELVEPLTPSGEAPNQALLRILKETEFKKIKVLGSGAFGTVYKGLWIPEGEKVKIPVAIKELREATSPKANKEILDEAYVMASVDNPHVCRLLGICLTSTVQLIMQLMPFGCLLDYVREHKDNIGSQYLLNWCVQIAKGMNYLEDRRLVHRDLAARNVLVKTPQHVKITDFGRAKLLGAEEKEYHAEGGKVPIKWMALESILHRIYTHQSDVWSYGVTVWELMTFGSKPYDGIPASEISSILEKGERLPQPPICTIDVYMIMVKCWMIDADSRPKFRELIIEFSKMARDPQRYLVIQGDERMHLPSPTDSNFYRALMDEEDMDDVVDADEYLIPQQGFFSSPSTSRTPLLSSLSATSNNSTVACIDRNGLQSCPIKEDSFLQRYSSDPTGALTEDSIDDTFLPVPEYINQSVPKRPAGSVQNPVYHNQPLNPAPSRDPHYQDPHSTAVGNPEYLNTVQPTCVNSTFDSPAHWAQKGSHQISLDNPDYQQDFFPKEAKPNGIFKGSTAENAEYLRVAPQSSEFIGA
T1 sequence (P04626 with tags, fused parts or gaps INS775YVMA): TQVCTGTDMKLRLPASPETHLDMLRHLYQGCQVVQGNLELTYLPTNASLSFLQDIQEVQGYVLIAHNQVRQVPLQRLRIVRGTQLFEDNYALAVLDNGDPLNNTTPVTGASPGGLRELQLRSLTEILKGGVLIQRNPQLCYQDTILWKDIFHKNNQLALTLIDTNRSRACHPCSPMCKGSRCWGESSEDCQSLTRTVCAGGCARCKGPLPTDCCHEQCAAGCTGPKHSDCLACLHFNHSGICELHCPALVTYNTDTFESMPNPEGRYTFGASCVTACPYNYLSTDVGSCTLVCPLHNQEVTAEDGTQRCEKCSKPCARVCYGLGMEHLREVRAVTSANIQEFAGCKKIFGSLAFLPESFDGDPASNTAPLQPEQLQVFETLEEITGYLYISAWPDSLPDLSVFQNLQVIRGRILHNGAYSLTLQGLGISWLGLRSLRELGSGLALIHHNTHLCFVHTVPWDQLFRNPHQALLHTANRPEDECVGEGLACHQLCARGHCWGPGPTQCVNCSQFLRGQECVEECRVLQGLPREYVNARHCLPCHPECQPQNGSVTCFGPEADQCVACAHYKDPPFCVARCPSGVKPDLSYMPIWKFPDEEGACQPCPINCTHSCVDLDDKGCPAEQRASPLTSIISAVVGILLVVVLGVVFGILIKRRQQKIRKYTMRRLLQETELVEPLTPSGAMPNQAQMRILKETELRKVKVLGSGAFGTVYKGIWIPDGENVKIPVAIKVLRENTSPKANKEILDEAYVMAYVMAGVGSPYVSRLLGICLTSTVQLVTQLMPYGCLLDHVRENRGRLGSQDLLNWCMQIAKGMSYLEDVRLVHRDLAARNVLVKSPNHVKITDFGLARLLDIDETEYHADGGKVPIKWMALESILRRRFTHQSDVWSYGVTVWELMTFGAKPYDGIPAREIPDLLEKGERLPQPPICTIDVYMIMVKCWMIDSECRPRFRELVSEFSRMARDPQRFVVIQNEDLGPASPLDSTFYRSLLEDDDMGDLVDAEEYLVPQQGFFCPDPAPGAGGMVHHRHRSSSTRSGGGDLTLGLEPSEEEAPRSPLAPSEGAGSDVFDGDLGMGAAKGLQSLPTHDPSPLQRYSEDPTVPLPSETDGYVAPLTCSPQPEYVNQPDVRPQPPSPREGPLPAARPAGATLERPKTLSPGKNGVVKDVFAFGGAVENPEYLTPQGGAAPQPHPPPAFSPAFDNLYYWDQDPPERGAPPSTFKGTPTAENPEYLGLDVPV
EGFR wt, sequence (P00533 25-1210): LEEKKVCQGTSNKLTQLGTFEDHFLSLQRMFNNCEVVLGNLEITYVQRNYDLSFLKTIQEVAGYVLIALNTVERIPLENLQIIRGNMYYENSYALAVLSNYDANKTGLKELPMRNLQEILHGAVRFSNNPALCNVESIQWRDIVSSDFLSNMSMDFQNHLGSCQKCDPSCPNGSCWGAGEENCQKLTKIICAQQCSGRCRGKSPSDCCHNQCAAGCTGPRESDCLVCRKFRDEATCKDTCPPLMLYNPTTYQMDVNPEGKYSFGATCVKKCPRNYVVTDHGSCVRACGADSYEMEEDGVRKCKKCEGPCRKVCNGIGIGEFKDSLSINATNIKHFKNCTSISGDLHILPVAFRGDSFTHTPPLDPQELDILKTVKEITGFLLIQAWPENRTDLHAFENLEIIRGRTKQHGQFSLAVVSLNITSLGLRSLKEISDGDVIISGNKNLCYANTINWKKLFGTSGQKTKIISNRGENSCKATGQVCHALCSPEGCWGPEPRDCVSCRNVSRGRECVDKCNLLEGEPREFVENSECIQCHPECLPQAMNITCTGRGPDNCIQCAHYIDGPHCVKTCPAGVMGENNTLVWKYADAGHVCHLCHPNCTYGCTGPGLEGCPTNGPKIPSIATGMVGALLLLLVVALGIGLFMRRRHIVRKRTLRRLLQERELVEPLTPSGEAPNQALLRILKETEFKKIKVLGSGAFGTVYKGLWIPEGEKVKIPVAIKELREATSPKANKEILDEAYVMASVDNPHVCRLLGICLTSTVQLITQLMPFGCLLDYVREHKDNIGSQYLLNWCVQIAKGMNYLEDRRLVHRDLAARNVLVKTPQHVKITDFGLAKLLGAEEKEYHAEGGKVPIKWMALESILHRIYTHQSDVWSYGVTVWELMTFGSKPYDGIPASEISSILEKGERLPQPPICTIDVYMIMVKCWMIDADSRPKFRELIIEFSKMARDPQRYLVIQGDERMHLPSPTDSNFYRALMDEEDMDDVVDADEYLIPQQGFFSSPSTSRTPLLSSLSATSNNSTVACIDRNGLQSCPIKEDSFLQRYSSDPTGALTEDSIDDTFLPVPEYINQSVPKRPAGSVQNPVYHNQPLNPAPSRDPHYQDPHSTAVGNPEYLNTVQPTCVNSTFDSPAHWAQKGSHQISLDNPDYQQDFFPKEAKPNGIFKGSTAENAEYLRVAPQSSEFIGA

For the molecule `C=CC(=O)N1CCOc2ccc(-c3c(-c4ccnc(N5CCN(C)CC5)c4)[nH]c4nccc(Cl)c34)cc21` [Example 98, 1-(6-(4-chloro-2-(2-(4-methylpiperazin-1-yl)pyridin-4-yl)-1H-pyrrolo[2,3-b]pyridin-3-yl)-2H-benzo[b][1,4]oxazin-4(3H)-yl)prop-2-en-1-one 2,2,2-trifluoroacetate], in series [1], the “Stability in presence of mouse liver microsomes without cofactor NADPH [% remaining after 50 min]” value is greater than 99 % remaining after 50 min. Moreover, the GI50 in series [2] and in series [3] was 100 to 500 nM throughout. For the same molecule, the half-maximal inhibitory concentration (IC50) (usually the concentration that inhibits the measured activity by half) was 100 to 500 nM in the series on H1975; no more than 100 nM against EGFR T790ML858R; 500 to 1000 nM with A431; no more than 100 nM at HER2 INS YVMA; no more than 100 nM against EGFR wt.

In the case of `C=CC(=O)N1CCOc2ccc(-c3c(-c4ccc(N5CCN(CC)CC5)cc4)[nH]c4nccc(Cl)c34)cc21` [Example 99, 1-(6-(4-chloro-2-(4-(4-ethylpiperazin-1-yl)phenyl)-1H-pyrrolo[2,3-b]pyridin-3-yl)-2H-benzo[b][1,4]oxazin-4(3H)-yl)prop-2-en-1-one], the “Stability in presence of mouse liver microsomes without cofactor NADPH [% remaining after 50 min]” value in series [1] is recorded as greater than 99 % remaining after 50 min. The GI50 in series [2] and in series [3] was 100 to 500 nM in each case. For the same molecule, the half-inhibitory concentration (IC50) is 100 to 500 nM in the series on H1975; no more than 100 nM at EGFR T790ML858R; 1000 to 100000 nM with A431; no more than 100 nM at HER2 INS YVMA; no more than 100 nM against EGFR wt.

For the molecule `C=CC(=O)N1CCOc2ccc(-c3c(-c4ccc(CN5CCN(C)CC5)cc4)[nH]c4nccc(Cl)c34)cc21` [Example 100, 1-(6-(4-chloro-2-(4-((4-methylpiperazin-1-yl)methyl)phenyl)-1H-pyrrolo[2,3-b]pyridin-3-yl)-2H-benzo[b][1,4]oxazin-4(3H)-yl)prop-2-en-1-one], the “Stability in presence of mouse liver microsomes without cofactor NADPH [% remaining after 50 min]” value in series [1] is greater than 99 % remaining after 50 min. The results for the GI50 in series [2] and in series [3] were 500 to 1000 nM and 100 to 500 nM, respectively. For the same molecule, the IC50 is 100 to 500 nM with H1975; no more than 100 nM at EGFR T790ML858R; 1000 to 100000 nM in the series with A431; no more than 100 nM on HER2 INS YVMA; no more than 100 nM on EGFR wt.

As to `C=CC(=O)N1CCc2ccc(-c3c(-c4ccc(N5CCN(C)CC5)cc4)[nH]c4nccc(OCC)c34)cc21` [Example 104, 1-(6-(4-ethoxy-2-(4-(4-methylpiperazin-1-yl)phenyl)-1H-pyrrolo[2,3-b]pyridin-3-yl)indolin-1-yl)prop-2-en-1-one 2,2,2-trifluoroacetate], the “Stability in presence of mouse liver microsomes without cofactor NADPH [% remaining after 50 min]” value in series [1] amounted to 89 % remaining after 50 min. Besides, the GI50 in series [2] and in series [3] was 100 to 500 nM each time. The IC50 in the series with H1975 is no more than 100 nM; against EGFR T790ML858R, no more than 100 nM; with A431, 500 to 1000 nM; at HER2 INS YVMA it was no more than 100 nM; on EGFR wt, no more than 100 nM.

As to `C=CC(=O)N1CCc2ccc(-c3c(-c4ccc(CN5CCN(C)CC5)cc4)[nH]c4nccc(OCC)c34)cc21` [Example 108, 1-(6-(4-ethoxy-2-(4-((4-methylpiperazin-1-yl)methyl)phenyl)-1H-pyrrolo[2,3-b]pyridin-3-yl)indolin-1-yl)prop-2-en-1-one], in series [1], the “Stability in presence of mouse liver microsomes without cofactor NADPH [% remaining after 50 min]” value was 86 % remaining after 50 min. For the same molecule, the GI50 in series [2] and in series [3] was 100 to 500 nM throughout. Besides, the IC50 with H1975 is no more than 100 nM; at EGFR T790ML858R, no more than 100 nM; in the series on A431, 500 to 1000 nM; against HER2 INS YVMA, no more than 100 nM; on EGFR wt, no more than 100 nM.

For `C=CC(=O)N1CCc2ccc(-c3c(-c4cccc(OCCN5CCCC5)c4)[nH]c4nccc(OCC)c34)cc21` [Example 109, 1-(6-(4-ethoxy-2-(3-(2-(pyrrolidin-1-yl)ethoxy)phenyl)-1H-pyrrolo[2,3-b]pyridin-3-yl)indolin-1-yl)prop-2-en-1-one], the “Stability in presence of mouse liver microsomes without cofactor NADPH [% remaining after 50 min]” value in series [1] amounted to 77 % remaining after 50 min. Further, the GI50 in series [2] and in series [3] was 100 to 500 nM throughout. Besides, the IC50 in the series with H1975 is no more than 100 nM; against EGFR T790ML858R, no more than 100 nM; in the series with A431 it was 500 to 1000 nM; at HER2 INS YVMA, no more than 100 nM; on EGFR wt it was no more than 100 nM.

For the molecule `C=CC(=O)N1CCc2ccc(-c3c(-c4ccc(N5CCN(C)CC5)cc4)[nH]c4nccc(OC)c34)cc21` [Example 110, 1-(6-(4-methoxy-2-(4-(4-methylpiperazin-1-yl)phenyl)-1H-pyrrolo[2,3-b]pyridin-3-yl)indolin-1-yl)prop-2-en-1-one], in series [1], the “Stability in presence of mouse liver microsomes without cofactor NADPH [% remaining after 50 min]” value stood at 93 % remaining after 50 min. For the same molecule, the GI50 in series [2] and in series [3] was 100 to 500 nM each time. Further, the half-inhibitory concentration (IC50) in the series with H1975 is no more than 100 nM; at EGFR T790ML858R it was no more than 100 nM; in the series on A431, 500 to 1000 nM; on HER2 INS YVMA it was no more than 100 nM; against EGFR wt it was no more than 100 nM.

Consider `C=CC(=O)N1CCc2ccc(-c3c(-c4ccnc(N5CCN(C)CC5)c4)[nH]c4nccc(OC)c34)cc21` [Example 111, 1-(6-(4-methoxy-2-(2-(4-methylpiperazin-1-yl)pyridin-4-yl)-1H-pyrrolo[2,3-b]pyridin-3-yl)indolin-1-yl)prop-2-en-1-one], for which the “Stability in presence of mouse liver microsomes without cofactor NADPH [% remaining after 50 min]” value in series [1] was found to be 90 % remaining after 50 min. Further, the GI50 in series [2] and in series [3] was no more than 100 nM throughout. In addition, the IC50 in the series on H1975 is no more than 100 nM; against EGFR T790ML858R it was no more than 100 nM; with A431 it was 100 to 500 nM; against HER2 INS YVMA it was no more than 100 nM; at EGFR wt, no more than 100 nM.

As for `C=CC(=O)N1CCc2ccc(-c3c(-c4ccc(OCCN5CCCC5)cc4)[nH]c4nccc(OC)c34)cc21` [Example 112, 1-(6-(4-methoxy-2-(4-(2-(pyrrolidin-1-yl)ethoxy)phenyl)-1H-pyrrolo[2,3-b]pyridin-3-yl)indolin-1-yl)prop-2-en-1-one], the “Stability in presence of mouse liver microsomes without cofactor NADPH [% remaining after 50 min]” value in series [1] is recorded as 79 % remaining after 50 min. For the same molecule, the GI50 in series [2] and in series [3] was 500 to 1000 nM in each case. For the same molecule, the IC50 in the series with H1975 is 100 to 500 nM; at EGFR T790ML858R, no more than 100 nM; in the series with A431, 1000 to 100000 nM; against HER2 INS YVMA it was no more than 100 nM; against EGFR wt, no more than 100 nM.

With `C=CC(=O)N1CCc2ccc(-c3c(-c4ccc(CN5CCN(C)CC5)cc4)[nH]c4nccc(OC)c34)cc21` [Example 113, 1-(6-(4-methoxy-2-(4-((4-methylpiperazin-1-yl)methyl)phenyl)-1H-pyrrolo[2,3-b]pyridin-3-yl)indolin-1-yl)prop-2-en-1-one], the “Stability in presence of mouse liver microsomes without cofactor NADPH [% remaining after 50 min]” value in series [1] turned out to be 96 % remaining after 50 min. Also, the GI50 in series [2] and in series [3] was no more than 100 nM each time. The IC50 in the series with H1975 is no more than 100 nM; against EGFR T790ML858R, no more than 100 nM; in the series on A431, 100 to 500 nM; against HER2 INS YVMA it was no more than 100 nM; on EGFR wt, no more than 100 nM.

Regarding `C=CC(=O)N1CCc2ccc(-c3c(-c4ccc(N5CCN(C)CC5)cc4)[nH]c4nccc(OC(C)C)c34)cc21` [Example 115, 1-(6-(4-isopropoxy-2-(4-(4-methylpiperazin-1-yl)phenyl)-1H-pyrrolo[2,3-b]pyridin-3-yl)indolin-1-yl)prop-2-en-1-one 2,2,2-trifluoroacetate], in series [1], the “Stability in presence of mouse liver microsomes without cofactor NADPH [% remaining after 50 min]” value is greater than 99 % remaining after 50 min. Further, the GI50 in series [2] and in series [3] was 100 to 500 nM in each case. In addition, the IC50 was no more than 100 nM with H1975; no more than 100 nM against EGFR T790ML858R; 500 to 1000 nM with A431; no more than 100 nM against HER2 INS YVMA; no more than 100 nM against EGFR wt.
